Laboratory results reported in patent US10723702B2, “Photocrosslinking reagents and methods of use thereof” (Northwestern University, priority 2015, dated 2020).
“Also recorded” adds a separate entry of the source.

Assays:
UbcH7/E6AP interaction = assay: Ubiquitin transfer from alkylated UbcH7 CΔS-Ub oxyester to E6AP HECT; format: biochemical; conditions: UbcH7-Ub oxyester 5 μM, E6AP-HECT 5 μM, PBS(B), 20 hours, room temperature
Procedure: (§1) FIGS. 5A-C. Crosslinker-modified UbcH7 charged with ubiquitin. UbcH7 C86S-Ub oxyester interacts with E6AP to transfer ubiquitin. (A.) Each alkylated mutant is competent to form an UbcH7 C86S-Ub oxyester except when the catalytic cysteine C86 is alkylated with crosslinker (lane 9). UbcH7 mutants alkylated by crosslinker 1 at the indicated residue (5 μM) were incubated with Ube1 (200 nM), ubiquitin (10 μM) in the dark at 37° C. for 15 hours in 25 mM HEPES pH 7.5, 50 mM NaCl, 10 mM MgCl2, 1 mM DTT with or without ATP (185 μM). Reactions were quenched with 6× Laemmli buffer with β-ME and incubated at room temperature for 5 minutes without boiling. The “*” marks a faint GST impurity. […] (C.) UbcH7 CΔS-Ub oxyester alkylated with crosslinker transfers ubiquitin to E6AP HECT (compare to FIG. 2B where E6AP HECT is a single band). […] UbcH7-Ub oxyester (5 μM) was incubated with or without E6AP-HECT (5 μM) in PBS(B) for 20 hours at room temperature. Reactions were quenched with 6× Laemmli buffer with β-ME and incubated at room temperature for 5 minutes without boiling.

UbcH7 [1] = assay: UbcH7 C86S-Ub oxyester formation by crosslinker-alkylated UbcH7; format: biochemical, human; conditions: oxyester formation and ubiquitin transfer retained
Procedure: as §1

E6AP HECT domain [2] = assay: Photocrosslinking of crosslinker-alkylated UbcH7 to E6AP HECT (365 nm, SDS-PAGE/western blot); format: biochemical; conditions: for Crosslinking of E6AP by UbcH7 CΔS F63A mutants or their Ub oxyesters bearing crosslinker: F63A negative control
Procedure: (§2) FIG. 4. […] UbcH7 CΔS E93C-2 or UbcH7 CΔS E93C-3 (10 μM final concentration) was incubated with E6AP-HECT (10 μM final concentration) in PBS(B) with 6 μM Tween-20 and 1 mM DTT. After keeping samples in the dark or irradiating at 365 nm for 10 minutes, they were quenched with 6× Laemmli buffer and β-mercaptoethanol (β-ME) and then boiled at 95° C. for 5 minutes. Covalently crosslinked protein complexes were resolved by SDS-PAGE and visualized by western blot and coomassie.
(§3) E6AP HECT was exchanged into crosslinker buffer with Zeba Spin Desalting Column and mixed (14 μM final concentration, 480 μg) with Tween-20 (6 μM), DTT (1 mM) in PBS(B) in a 1.5 mL tube. The reaction mixture was then taken to a darkened room where alkylated UbcH7 (14 μM, final concentration, 203 μg) was added (final volume of reaction mixture was 790 μL). The solution was mixed by pipetting and then transferred to four wells of a 96 well plate (Costar #3370). The plate was placed 3 cm below a UV lamp (UVP 3UV-38 3UV Lamp; 8 watt, 115V ˜60 Hz, 0.16 Amps) and irradiated at 365 nm for 10 minutes.
(§4) Following irradiation, the sample was mixed with Laemmli buffer and β-mercaptoethanol (230 mM final concentration) and boiled for five minutes. Crosslinking experiments in main text FIGS. 2, 3, and 4 were performed similarly with 20-50 μL total volume and with the indicated final concentrations of UbcH7 and E6AP.
(§5) Alkylation of UbcH7 cysteine mutants occurred readily by incubating 50-300 μM UbcH7 with 5 mM crosslinker 1 at room temperature for 90 minutes before removing free crosslinker with a desalting column. […] The UbcH7 CΔS-1 mutants (10 μM) were then mixed with the E6AP catalytic HECT domain (10 μM) and irradiated at 365 nm for 10 minutes in a 96-well plate. The reaction mixtures were then resolved with reducing SDS-PAGE and analyzed with anti-UbcH7 western blot. Photocrosslinking of UbcH7 to E6AP depends on the presence of both UV irradiation and E6AP (FIG. 6).

[3] = tested on: UbcH7 mutants with a single cysteine available; assay: Alkylation conversion of UbcH7 mono-cysteine mutants by crosslinker, estimated by LCMS; format: biochemical, human; conditions: all mono-cysteine UbcH7 mutants; intact protein mass spectrometry
Procedure: Crosslinker in DMF (500 mM, 5 mM final concentration) was added to a UbcH7 cysteine mutant (100-200 μM in UbcH7 storage buffer; 1% DMF v/v final concentration). The resulting reaction mixture was mixed by pipetting, covered with aluminum foil, and rocked at room temperature (crosslinkers 1), or 4° C. (crosslinker 2 and 3) for 90 minutes. Immediately following, the solution was desalted/exchanged into PBS(B) with a Zeba Spin Desalting Column (7 kDa MWCO Pierce), frozen in N2(l), and stored at −80° C. The extent of alklylation was analyzed by LC-MS.
as §5

E6AP-HECT = target: T1, E6AP-HECT (Homo sapiens, UniProt Q05086); conditions: read-out: Binding affinity Kd for E6AP-HECT; cited from earlier work
T1 sequence (Q05086 495-852 isoform Q05086-2 limits assumed): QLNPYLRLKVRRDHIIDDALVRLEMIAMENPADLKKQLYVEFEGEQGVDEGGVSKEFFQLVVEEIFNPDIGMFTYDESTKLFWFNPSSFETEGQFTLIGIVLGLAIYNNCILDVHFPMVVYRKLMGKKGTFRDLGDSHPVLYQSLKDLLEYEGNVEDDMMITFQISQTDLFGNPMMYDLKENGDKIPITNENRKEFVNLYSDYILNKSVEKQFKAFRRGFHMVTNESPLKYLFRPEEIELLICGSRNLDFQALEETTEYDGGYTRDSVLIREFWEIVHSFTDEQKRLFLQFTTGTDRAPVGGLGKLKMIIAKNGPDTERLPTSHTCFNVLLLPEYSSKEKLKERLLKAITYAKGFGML

E6AP HECT domain [4] = target: T2, E6AP HECT domain (Homo sapiens, UniProt Q05086); assay: Photocrosslinking of crosslinker-alkylated UbcH7 to E6AP HECT (365 nm, SDS-PAGE/western blot); format: biochemical; conditions: crosslinker on UbcH7 CΔS E93C 10 μM, E6AP-HECT 10 μM, 365 nm 10 minutes
T2 construct: Underlined residues remain from the GST tag and are not part; GST (N, cleaved yes); made in house; host or cells: E. coli Rosetta (DE3) pLysS (E6AP HECT); E. coli BL21 (UbcH7)
T2 sequence (Q05086 with tags, fused parts or gaps): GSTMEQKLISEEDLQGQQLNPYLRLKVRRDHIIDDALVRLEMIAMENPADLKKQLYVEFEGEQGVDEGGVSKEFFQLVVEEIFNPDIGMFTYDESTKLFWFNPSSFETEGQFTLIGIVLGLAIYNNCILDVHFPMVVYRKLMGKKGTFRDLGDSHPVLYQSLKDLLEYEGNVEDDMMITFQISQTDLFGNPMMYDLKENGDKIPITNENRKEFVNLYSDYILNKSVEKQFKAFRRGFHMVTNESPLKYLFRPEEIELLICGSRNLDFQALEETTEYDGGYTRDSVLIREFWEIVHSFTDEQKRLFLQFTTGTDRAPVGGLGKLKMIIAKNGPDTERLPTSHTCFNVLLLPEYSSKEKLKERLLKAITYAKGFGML
Procedure: as §2, §3, §4, §5

UbcH7 [5] = target: T3, UbcH7 (Homo sapiens, UniProt P68036, C137S/C17S/C86S/E93C); assay: UbcH7 C86S-Ub oxyester formation by crosslinker-alkylated UbcH7; format: biochemical; conditions: crosslinker on UbcH7 CΔS E93C; Ube1, ubiquitin, ATP, 37° C., 15 hours
T3 construct: Underlined residues remain from the GST tag and are not part; GST (N, cleaved yes); made in house; host or cells: E. coli BL21 (UbcH7)
T3 sequence (P68036 with tags, fused parts or gaps C17S/C86S/E93C/C137S): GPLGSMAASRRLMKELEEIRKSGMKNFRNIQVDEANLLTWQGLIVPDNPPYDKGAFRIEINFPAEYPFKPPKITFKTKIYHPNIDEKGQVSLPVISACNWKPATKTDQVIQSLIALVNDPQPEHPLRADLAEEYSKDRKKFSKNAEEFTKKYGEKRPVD
Procedure: as §1

[6] = Acid cleavage of crosslinker in photocrosslinked UbcH7-E6AP complex; format: physicochemical; conditions: pH 1, 55° C.
Procedure: FIGS. 12A-E. Mass spectrometry protocol to identify crosslinker modifications on E6AP. A. The band corresponding to the crosslinked UbcH7-E6AP complex was excised and loaded to the denaturing electroelution device. After eluting complexes from the gels, photocrosslinked protein complexes were cleaved under acidic conditions, trypsinized, and then analyzed. B. Crosslinker 2 is cleavable at pH 1, 55° C. I. UbcH7-E6AP crosslink. II. E6AP-HECT. C. By conducting the acidic cleavage of photocrosslinked proteins in Tris-Glycine-SDS buffer, we avoided hydrolysis of the peptide backbone. I. UbcH7-E6AP crosslink. II. E6AP-HECT. III. UbcH7. D. MS^2 identification of E6AP Lys^847 modified by crosslinker 2. y-ions are highlighted. The full spectrum and b-ion identification can be found in Spectral Appendix I. E. Residue map of the E6AP C-terminus indicating sites of crosslinker modification by UbcH7 CΔS E93C-2/3 or UbcH7 CΔS E93C Ub-2/3.
Electroelution fractions in Tris-Glycine-SDS buffer were treated with 1 M aqueous HCl (protein sample/1 M HCl 4:1 v/v) to obtain pH 1 in a 1.5 microcentrifuge tube (one gel's worth of elution per tube). […]
To identify the photocrosslinked sites of E6AP, a mass spectrometry protocol was developed. […] Finally, protein was precipitated with acetone, digested with trypsin, and then analyzed the peptides with an Orbitrap Velos.

Compound	Interference of crosslinker with UbcH7/E6AP interaction (ubiquitin transfer to E6AP HECT) (UbcH7/E6AP interaction)	Effect of mutagenesis and alkylation with crosslinker on E2 enzyme structure (UbcH7 [1])	Crosslinking of E6AP by UbcH7 CΔS F63A mutants or their Ub oxyesters bearing crosslinker (E6AP HECT domain [2])	Crosslinking efficiency by crosslinker position on UbcH7 (E6AP HECT domain [2]; crosslinker placed at UbcH7 CΔS E93C or catalytic cysteine Cys86, 10 μM each, 365 nm 10 minutes)	Labeling (mono-alkylation) of UbcH7 cysteine mutants, in words [3]	Kd (E6AP-HECT) [µM]	Photocrosslinking efficiency (E6AP HECT domain [4])	Effect of crosslinker on efficiency of UbcH7-Ub oxyester formation (UbcH7 [5])	Cleavage of crosslinker under acidic conditions [6]
CC1(CCNC(=O)CI)N=N1 [Crosslinker 1]	does not interfere with the UbcH7/E6AP interaction	did not compromise the E2 enzyme structure	did not crosslink E6AP	most efficient crosslinking	quantitatively labeled every UbcH7 cysteine mutant; also recorded: near quantitative mono-alkylation	–	–	–	–
UbcH7: E2 enzyme upstream of E6AP (SEQ ID NO: 2)	–	–	–	–	–	5	–	–	–
[2H]C([2H])([2H])C1(C([2H])([2H])COS(=O)(=O)NC(=O)CI)N=N1 [Crosslinker 3]	–	did not compromise the E2 enzyme structure	–	–	not as reactive with some of the mutants	–	equal photocrosslinking efficiency	–	–
CC1(CCOS(=O)(=O)NC(=O)CI)N=N1 [Crosslinker 2]	–	did not compromise the E2 enzyme structure	did not crosslink E6AP	–	not as reactive with some of the mutants	–	equal photocrosslinking efficiency	does not affect the efficiency of UbcH7-Ub oxyester formation	cleavable
